Laboratory results reported in US9987364B2, “Water-swellable polymers” (Ferring B.V., priority 2002, dated 2018).

Key:
[1] = cited from earlier work
[2] = In vitro drug release from pessaries, USP Method XXIII Apparatus 2; format: physicochemical; conditions: 37° C., 50 rpm
Description: The drug loaded polymer were analysed for in vitro drug release following USP Method XXIII, Apparatus 2 at 37° C., with 50 rpm paddle speed. Drug release was analysed by ultraviolet spectroscopy or high pressure liquid chromatography (HPLC) as appropriate.
Rate of drug release k values of each dissolution profile was determined by calculating the slope of graph % drug release versus square root time. All the linear relationship between % drug release and square root time has R^2 correlation value […].

[3] = from A03003 (CLP) cross-linked polymer pessaries
[4] = from A03030 (LP) linear polymer pessaries
[5] = from A03032 (LP) linear polymer pessaries

SMILES: CCCCC(C)(O)C/C=C/[C@H]1[C@H](O)CC(=O)[C@@H]1CCCCCCC(=O)OC (mixture of isomers) [MIS, misoprostol]
- Drug solubility (in water), in words [1]: Insoluble

SMILES: CC(C)(C)NCC(O)c1cc(O)cc(O)c1 (centres unmarked) [TBS, Terbutaline sulphate]
- Rate of drug release, k [2, 3]: 13.628 minute^−0.5
- Rate of drug release, k [2, 4]: 13.262 minute^−0.5
- Rate of drug release, k [2, 5]: 11.954 minute^−0.5
- Drug solubility (in water), in words [1]: Soluble

SMILES: CC[C@H](C)[C@@H]1NC(=O)[C@H](Cc2ccc(O)cc2)NC(=O)[C@@H](N)CSSC[C@@H](C(=O)N2CCC[C@H]2C(=O)N[C@@H](CC(C)C)C(=O)NCC(N)=O)NC(=O)[C@H](CC(N)=O)NC(=O)[C@H](CCC(N)=O)NC1=O [OXY, Oxytocin]
- Rate of drug release, k [2, 3]: 6.749 minute^−0.5
- Rate of drug release, k [2, 4]: 7.875 minute^−0.5
- Rate of drug release, k [2, 5]: 7.85 minute^−0.5

SMILES: CC(=O)[C@H]1CC[C@H]2[C@@H]3CCC4=CC(=O)CC[C@]4(C)[C@H]3CC[C@]12C [PRO, Progesterone]
- Rate of drug release, k [2, 3]: 2.414 minute^−0.5
- Rate of drug release, k ([2]; from A03033 (LP) linear polymer pessaries): 1.256 minute^−0.5
- Drug solubility (in water), in words [1]: Insoluble
